# Source: PMC11649115, “In vitro safety evaluation of dopamine D3R antagonist, R-VK4-116, as a potential medication for the treatment of opioid use disorder” (PLOS ONE, 2024)
# Like-named read-outs stand apart in the source and are kept apart here.
# Tests used:
# [1] = Metabolite identification in liver microsomes; type: in vitro ADME; settings: 10 μM R-VK4-116, 120 min
# Method: Reactions were stopped by removing 100 μl aliquots at 120 min and mixing with 200 μl of acetonitrile. Following brief vortexing and centrifugation, the supernatant was transferred to an HPLC vial fitted with a 300 μl glass insert for metabolite analysis using a Sciex 4000QTrap mass spectrometer.
# OAT1 = target: T1, OAT1 (Homo sapiens, UniProt Q4U2R8); assay: Transporter mediated assay (substrate/inhibitor), MDCK-II cells; type: in vitro ADME
# T1 construct: expressed in transfected cells; host or cells: MDCK-II cells
# T1 sequence (Q4U2R8 1-563): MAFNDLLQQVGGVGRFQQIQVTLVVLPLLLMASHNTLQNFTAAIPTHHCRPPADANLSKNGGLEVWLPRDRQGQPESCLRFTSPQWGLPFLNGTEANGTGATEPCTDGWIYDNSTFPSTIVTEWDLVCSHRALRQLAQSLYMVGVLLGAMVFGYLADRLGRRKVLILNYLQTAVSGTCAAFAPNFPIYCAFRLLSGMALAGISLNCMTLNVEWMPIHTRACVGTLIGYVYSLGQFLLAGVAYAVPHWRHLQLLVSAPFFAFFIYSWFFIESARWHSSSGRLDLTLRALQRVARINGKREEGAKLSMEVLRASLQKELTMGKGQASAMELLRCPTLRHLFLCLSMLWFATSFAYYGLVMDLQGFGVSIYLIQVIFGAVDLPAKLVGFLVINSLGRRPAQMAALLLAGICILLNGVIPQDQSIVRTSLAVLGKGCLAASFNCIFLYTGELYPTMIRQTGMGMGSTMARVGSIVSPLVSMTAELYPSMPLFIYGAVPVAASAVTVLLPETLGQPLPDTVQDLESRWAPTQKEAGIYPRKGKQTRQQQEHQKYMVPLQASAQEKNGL
# Method: The MDCK-II cells were treated to express the transporter of interest. The transport of each probe substrate was determined by radiometric detection (Fig 1 in S1 File). […] For the uptake assay, the net transporter-mediated uptake-rate (V) of the substrate by each SLC transporter was calculated as follows: Transporter–mediatedupdaterate(pmol/min/cm^2)=(Cellularaccumulationincellsexpressingthetransporter)−(Meancellularaccumulationincontrolcells)/Surfacearea×incubationtime
# P-gp = target: T2, P-gp (Homo sapiens, UniProt P08183); assay: as above; type: in vitro ADME; settings: human
# T2 construct: expressed in transfected cells; host or cells: MDCK-II cells
# Method: The MDCK-II cells were treated to express the transporter of interest.
# For BCRP and P-gp, the apparent permeability Papp and Efflux Ratio (ER) were calculated [16]. Net basal (B) to apical (A) flux (B → A) of the substrate transport (pmol/min/cm^2) by BCRP or P-gp was calculated by subtracting A → B flux from B → A flux.
# 5-HT2B(h) = target: T3, 5-HT2B(h) (Homo sapiens, UniProt P41595); assay: Cellular and nuclear receptor functional assay, antagonist effect; type: cell-based; settings: 10 μM
# T3 construct: Eurofins Cerep (France) and Eurofins Discovery (St. Charles, MO)
# Method: (§1) The purpose of this study was to provide a first step in preliminary safety assessments by providing early identification of potential off-target interactions for the optimization of safety margins. This study was conducted by Eurofins Cerep (France) and Eurofins Discovery (St. Charles, MO). R-VK4-116 was tested in enzyme and uptake assay with 10 enzyme targets (Figs 4 and 5 in S1 File), and cellular and nuclear receptor functional assays with 24 receptor targets (Figs 5 and 6 in S1 File). Compound enzyme inhibition effect was calculated as a % inhibition of control enzyme activity. The cellular agonist effect was calculated as a % of the control response to a known reference agonist for each target, and the cellular antagonist effect was calculated as a % inhibition of the control reference agonist response for each target.
# H1(h) = target: T4, H1(h) (Homo sapiens, UniProt P35367); assay: as above; type: cell-based
# T4 construct: Eurofins Cerep (France) and Eurofins Discovery (St. Charles, MO)
# Method: as §1
# V1a(h) = target: T5, V1a(h) (Homo sapiens, UniProt P37288); assay: as above; type: cell-based; settings: 10 μM
# T5 construct: Eurofins Cerep (France) and Eurofins Discovery (St. Charles, MO)
# Method: as §1
# α1A(h) = target: T6, α1A(h) (Homo sapiens, UniProt P35348); assay: as above; type: cell-based
# T6 construct: Eurofins Cerep (France) and Eurofins Discovery (St. Charles, MO)
# Method: as §1
# 24 receptor targets = assay: Cellular and nuclear receptor functional assays, agonist and antagonist effect (panel); type: cell-based; settings: 10 μM
# Method: as §1
# CHEK2 = target: T7, CHEK2 (Homo sapiens, UniProt O96017); assay: KINOMEscan binding (% Ctrl, Kd)
# T7 construct: made in house; host or cells: E. coli BL21-derived host (T7 phage) or HEK-293
# Method: (§3) Briefly, E. coli host derived from the BL21 strain were grown to log-phase and infected with kinase-tagged T7 phage and incubated with shaking at 32°C until lysis. The lysates were centrifuged and filtered to remove cell debris. The remaining kinases were produced in HEK-293 cells and subsequently tagged with DNA for qPCR detection. Streptavidin-coated magnetic beads were treated with biotinylated small molecule ligands to generate affinity resins for kinase assays. The liganded beads were blocked with excess biotin and washed to remove unbound ligand and to reduce non-specific phage binding. […] Selectivity Score (S-score) was a quantitative measure of compound selectivity. […] The binding constants (Kds) were also determined with a standard dose-response curve using the Hill equation and Levenberg-Marquardt algorithm [24, 25].
# SRPK2 = target: T8, SRPK2 (Homo sapiens, UniProt P78362); assay: KINOMEscan binding (% Ctrl, Kd)
# T8 construct: made in house; host or cells: E. coli BL21-derived host (T7 phage) or HEK-293
# Method: as §3
# [2] = Metabolic stability in liver microsomes; settings: human, pH 7.4
# CYP2D6 = CYP2D6 (Homo sapiens, UniProt P10635); assay: CYP phenotyping, recombinant CYP; type: in vitro ADME; parameters: purchased XenoTech, LLC, Kansas City, KS; host or cells: bactosomes (bacterial membranes); settings: recombinant CYP2D6, pH 7.4, incubated with CYP2D6, 1 μM, 120 min
# Method: (§2) CYP phenotyping involved the identification of CYP isoforms, which involved in the metabolism of R-VK4-116 using recombinant CYP1A2, CYP2B6, CYP2C8, CYP2C9, CYP2C19, CYP2D6, and CYP3A4 (XenoTech, LLC, Kansas City, KS), followed by determination of the Km and Vmax for the metabolites formed by the major CYP isoforms. […] In addition, R-VK4-116 was also incubated with all components in the absence of NADPH. […] Following brief vortexing and centrifugation, 50 μl of supernatant was mixed with 450 μl of 25:75:0.2 acetonitrile/water/formic acid for analysis by LC-MS/MS to determine the remaining R-VK4-116 at each time point based on peak area ratio (PAR) of R-VK4-116 to IS. As a positive control, the known substrate of each individual CYP isoform (phenacetin for CYP1A2, bupropion for CYP2B6, paclitaxel for CYP2C8, diclofenac for CYP2C9, diazepam for CYP2C19, bufuralol for CYP2D6, and testosterone for CYP3A4) was also incubated.
# CYP3A4 = CYP3A4 (Homo sapiens, UniProt P08684); assay: CYP phenotyping, recombinant CYP; type: in vitro ADME; parameters: purchased XenoTech, LLC, Kansas City, KS; host or cells: bactosomes (bacterial membranes); settings: recombinant CYP3A4, pH 7.4, incubated with CYP3A4, 1 μM, 120 min
# Method: as §2
# [3] = MDCK-MDR1, P-gp, substrate test, 1 µM
# [4] = 11-point curve 0.001 to 10 μM, read-out: binding constant (Kd)
# [5] = heat-inactivated liver microsomes
# T7 sequence (O96017 whole entry): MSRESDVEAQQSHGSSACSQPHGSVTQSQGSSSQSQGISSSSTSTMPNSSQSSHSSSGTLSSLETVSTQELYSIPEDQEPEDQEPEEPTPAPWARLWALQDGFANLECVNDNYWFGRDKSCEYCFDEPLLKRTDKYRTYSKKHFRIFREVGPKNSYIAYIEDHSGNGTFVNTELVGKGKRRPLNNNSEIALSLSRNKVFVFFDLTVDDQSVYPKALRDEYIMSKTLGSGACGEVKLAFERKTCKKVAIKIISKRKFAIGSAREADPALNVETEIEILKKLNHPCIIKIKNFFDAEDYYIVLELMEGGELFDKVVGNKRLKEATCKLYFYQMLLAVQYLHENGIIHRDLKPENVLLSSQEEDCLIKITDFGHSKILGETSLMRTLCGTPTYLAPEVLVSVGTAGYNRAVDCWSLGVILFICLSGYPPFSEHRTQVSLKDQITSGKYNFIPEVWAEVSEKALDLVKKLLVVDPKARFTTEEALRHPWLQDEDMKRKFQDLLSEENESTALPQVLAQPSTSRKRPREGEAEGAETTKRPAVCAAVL
# T8 sequence (P78362 whole entry): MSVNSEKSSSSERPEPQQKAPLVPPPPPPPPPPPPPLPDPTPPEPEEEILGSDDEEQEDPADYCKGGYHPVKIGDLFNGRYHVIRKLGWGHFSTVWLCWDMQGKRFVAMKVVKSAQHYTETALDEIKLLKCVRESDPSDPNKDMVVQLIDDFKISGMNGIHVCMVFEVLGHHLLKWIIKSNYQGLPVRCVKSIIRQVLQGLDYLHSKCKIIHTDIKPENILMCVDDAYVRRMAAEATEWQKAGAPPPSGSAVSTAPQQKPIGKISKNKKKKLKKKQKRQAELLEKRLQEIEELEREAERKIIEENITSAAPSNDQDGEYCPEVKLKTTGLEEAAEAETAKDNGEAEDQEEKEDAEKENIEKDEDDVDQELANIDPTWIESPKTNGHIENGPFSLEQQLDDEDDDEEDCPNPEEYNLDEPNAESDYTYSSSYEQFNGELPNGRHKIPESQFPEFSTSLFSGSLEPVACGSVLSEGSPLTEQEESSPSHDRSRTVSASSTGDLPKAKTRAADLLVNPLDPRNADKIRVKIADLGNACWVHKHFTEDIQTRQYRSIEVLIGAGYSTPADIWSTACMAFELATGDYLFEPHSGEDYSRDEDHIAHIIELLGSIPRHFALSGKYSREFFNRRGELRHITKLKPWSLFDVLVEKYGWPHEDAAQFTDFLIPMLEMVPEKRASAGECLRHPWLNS
# T2 sequence (P08183 whole entry): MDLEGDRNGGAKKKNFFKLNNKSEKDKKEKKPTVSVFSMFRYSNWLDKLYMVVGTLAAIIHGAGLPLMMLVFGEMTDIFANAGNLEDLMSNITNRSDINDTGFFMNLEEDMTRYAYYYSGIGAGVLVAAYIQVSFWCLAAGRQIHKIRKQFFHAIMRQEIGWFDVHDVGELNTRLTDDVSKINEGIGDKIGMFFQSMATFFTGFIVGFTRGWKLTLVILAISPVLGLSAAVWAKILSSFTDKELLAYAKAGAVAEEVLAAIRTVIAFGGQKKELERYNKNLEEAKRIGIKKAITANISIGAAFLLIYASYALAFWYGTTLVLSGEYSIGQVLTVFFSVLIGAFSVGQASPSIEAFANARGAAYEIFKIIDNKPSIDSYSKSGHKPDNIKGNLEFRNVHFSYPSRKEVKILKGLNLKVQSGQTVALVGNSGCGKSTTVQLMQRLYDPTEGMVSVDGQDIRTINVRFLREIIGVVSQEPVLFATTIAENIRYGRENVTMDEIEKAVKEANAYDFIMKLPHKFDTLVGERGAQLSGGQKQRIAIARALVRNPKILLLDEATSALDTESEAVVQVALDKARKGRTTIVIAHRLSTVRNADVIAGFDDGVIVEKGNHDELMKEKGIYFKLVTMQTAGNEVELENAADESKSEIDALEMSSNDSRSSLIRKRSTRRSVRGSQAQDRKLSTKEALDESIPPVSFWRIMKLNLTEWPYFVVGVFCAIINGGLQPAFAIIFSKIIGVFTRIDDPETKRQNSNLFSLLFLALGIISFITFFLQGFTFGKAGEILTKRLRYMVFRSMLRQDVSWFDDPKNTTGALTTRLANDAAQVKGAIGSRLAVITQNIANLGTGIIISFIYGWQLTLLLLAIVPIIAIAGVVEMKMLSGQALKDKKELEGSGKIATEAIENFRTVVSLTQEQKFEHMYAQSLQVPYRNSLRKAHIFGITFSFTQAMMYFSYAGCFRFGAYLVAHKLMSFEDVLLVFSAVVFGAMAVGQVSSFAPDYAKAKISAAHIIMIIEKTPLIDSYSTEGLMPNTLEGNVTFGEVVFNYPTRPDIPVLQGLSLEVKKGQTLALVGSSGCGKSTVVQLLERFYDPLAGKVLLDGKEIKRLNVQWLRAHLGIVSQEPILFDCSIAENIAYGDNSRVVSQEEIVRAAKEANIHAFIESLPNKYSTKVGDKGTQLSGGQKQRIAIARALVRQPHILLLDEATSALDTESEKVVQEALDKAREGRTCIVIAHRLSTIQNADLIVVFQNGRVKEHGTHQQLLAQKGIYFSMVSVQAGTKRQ
# T4 sequence (P35367 whole entry): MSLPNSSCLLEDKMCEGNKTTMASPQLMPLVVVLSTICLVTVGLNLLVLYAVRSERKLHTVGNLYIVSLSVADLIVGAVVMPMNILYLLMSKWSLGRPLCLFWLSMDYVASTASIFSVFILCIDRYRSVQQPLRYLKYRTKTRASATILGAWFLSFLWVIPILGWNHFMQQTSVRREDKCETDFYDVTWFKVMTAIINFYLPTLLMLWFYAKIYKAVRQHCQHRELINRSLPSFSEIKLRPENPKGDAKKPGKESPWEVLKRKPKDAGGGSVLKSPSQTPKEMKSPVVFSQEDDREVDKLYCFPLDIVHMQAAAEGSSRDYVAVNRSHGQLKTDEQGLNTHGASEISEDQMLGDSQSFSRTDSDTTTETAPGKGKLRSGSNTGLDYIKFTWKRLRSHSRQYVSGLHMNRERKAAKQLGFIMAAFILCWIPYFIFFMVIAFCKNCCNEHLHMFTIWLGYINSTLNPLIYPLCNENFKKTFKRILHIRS
# T6 sequence (P35348 whole entry): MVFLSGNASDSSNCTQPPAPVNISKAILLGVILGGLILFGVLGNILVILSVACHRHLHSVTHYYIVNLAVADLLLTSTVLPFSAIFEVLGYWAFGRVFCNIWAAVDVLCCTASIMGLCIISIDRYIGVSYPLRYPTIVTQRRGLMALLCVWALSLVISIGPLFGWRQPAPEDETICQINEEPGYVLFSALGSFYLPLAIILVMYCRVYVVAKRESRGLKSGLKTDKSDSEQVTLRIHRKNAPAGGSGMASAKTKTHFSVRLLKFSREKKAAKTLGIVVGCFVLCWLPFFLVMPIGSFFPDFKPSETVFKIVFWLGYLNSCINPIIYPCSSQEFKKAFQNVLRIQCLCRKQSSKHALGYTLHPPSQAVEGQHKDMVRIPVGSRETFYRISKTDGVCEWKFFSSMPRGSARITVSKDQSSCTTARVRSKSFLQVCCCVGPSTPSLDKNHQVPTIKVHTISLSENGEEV
# Chain of CYP2D6 (P10635 whole entry, canonical isoform): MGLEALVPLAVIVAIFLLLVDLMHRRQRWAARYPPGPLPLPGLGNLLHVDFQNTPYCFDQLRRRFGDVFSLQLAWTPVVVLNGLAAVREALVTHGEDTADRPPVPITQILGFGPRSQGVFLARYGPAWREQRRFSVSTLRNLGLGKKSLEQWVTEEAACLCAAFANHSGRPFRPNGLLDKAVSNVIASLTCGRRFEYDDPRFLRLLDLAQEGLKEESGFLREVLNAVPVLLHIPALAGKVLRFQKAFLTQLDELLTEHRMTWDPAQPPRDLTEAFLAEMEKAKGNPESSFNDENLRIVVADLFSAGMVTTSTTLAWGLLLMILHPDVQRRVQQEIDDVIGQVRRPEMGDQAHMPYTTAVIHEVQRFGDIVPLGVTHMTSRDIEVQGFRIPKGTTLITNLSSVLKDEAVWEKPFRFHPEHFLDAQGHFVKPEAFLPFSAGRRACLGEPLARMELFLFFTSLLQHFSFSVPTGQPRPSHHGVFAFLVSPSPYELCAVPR
# T5 sequence (P37288 whole entry): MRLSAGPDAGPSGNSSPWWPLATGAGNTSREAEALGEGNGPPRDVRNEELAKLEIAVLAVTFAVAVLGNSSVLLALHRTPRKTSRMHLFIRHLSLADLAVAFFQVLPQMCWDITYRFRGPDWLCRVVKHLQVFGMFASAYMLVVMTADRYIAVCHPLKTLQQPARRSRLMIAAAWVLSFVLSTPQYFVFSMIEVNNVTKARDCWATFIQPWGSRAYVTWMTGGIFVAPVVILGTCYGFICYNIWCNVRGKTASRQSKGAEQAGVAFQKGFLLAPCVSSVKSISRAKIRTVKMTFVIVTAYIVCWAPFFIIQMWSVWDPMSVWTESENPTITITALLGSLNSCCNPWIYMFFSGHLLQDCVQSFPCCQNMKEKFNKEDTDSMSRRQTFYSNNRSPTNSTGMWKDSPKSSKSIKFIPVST
# Chain of CYP3A4 (P08684 whole entry): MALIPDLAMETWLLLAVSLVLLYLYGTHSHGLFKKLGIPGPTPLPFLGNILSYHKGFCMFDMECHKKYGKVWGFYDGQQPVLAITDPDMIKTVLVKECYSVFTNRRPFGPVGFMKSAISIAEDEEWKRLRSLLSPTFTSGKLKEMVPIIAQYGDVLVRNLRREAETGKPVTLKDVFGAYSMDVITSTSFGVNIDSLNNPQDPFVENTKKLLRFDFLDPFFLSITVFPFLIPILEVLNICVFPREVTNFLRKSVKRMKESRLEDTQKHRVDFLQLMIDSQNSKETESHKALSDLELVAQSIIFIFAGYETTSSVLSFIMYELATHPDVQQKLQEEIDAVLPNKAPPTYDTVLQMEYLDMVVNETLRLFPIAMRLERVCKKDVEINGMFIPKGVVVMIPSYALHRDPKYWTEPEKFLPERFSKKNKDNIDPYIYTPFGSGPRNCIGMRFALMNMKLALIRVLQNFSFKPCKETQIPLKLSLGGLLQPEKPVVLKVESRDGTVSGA
compound,measurement,setting,value
"CCc1cc(Cl)c(OC)c(N2CCN(CC(O)CCNC(=O)c3cc4ccccc4[nH]3)CC2)c1 (stereo not drawn) [R-VK4-116, N-(4-(4-(3-chloro-5-ethyl-2-methoxyphenyl)piperazin-1-yl)-3-hydroxybutyl)-1H-indole-2-carboxamide]",% Area,"[1]; dog liver microsomes, MRM product ion 116.1",10.4%
same,% Area,"[1]; dog liver microsomes, MRM product ion 144.1",28.6%
same,% Area,"[1]; human liver microsomes, MRM product ion 116.1",62.4%
same,% Area,"[1]; human liver microsomes, MRM product ion 144.1",4.1%
same,% Area,"[1]; rat liver microsomes, MRM product ion 116.1",8.2%
same,% Area,"[1]; rat liver microsomes, MRM product ion 144.1",86.1%
same,fold difference in mean uptake rate (substrate test),"OAT1; OAT1, 1 μM, transporter cells vs control cells",< 2 fold
same,Inhibition (%),"OAT1; OAT1, 0.1% BSA, 10 μM",no statistically significant inhibition
same,inhibition at 10 µM,"OAT1; human, polarized monolayer of MDCK-II cells expressing OAT1, OAT1, 0.1% BSA, 10 μM",8.97 ± 1.58%
same,Papp A→B at 1 µM,P-gp; [3],< 0.2 ×10⁻⁶ cm/s
same,Papp B→A at 1 µM,P-gp; [3],< 0.1 ×10⁻⁶ cm/s
same,inhibition at 10 µM,P-gp; probe quinidine 0.1 μM,56.5 ± 6.17%
same,antagonist effect,5-HT2B(h),44.6%
same,inhibition at 10 µM,H1(h),86.1%
same,antagonist effect,V1a(h),27.8%
same,inhibition at 10 µM,α1A(h),82.9%
same,agonist and antagonist effects for most of the targets,24 receptor targets,did not exhibit agonist and antagonist effects
same,Kd,CHEK2; [4],> 10 µM
same,remaining binding at 1 µM,CHEK2; read-out: %Control,< 35%
same,remaining binding at 1 µM,CHEK2; read-out: Gene (S-score with % control): CHEK2,19%
same,Kd,SRPK2; [4],> 10 µM
same,remaining binding at 1 µM,SRPK2; read-out: %Control,< 35%
same,remaining binding at 1 µM,SRPK2; read-out: Gene (S-score with % control): SRPK2,21%
same,"remaining at 0 h, 1 μM",[2]; [5],100%
same,"remaining at 0 h, 10 μM",[2]; [5],100%
same,"remaining at 2 h, 1 μM",[2]; [5],96.7%
same,"remaining at 2 h, 10 μM",[2]; [5],95.1%
same,"remaining at 0 h, 1 μM",[2]; liver microsomes,100%
same,"remaining at 0 h, 10 μM",[2]; liver microsomes,100%
same,"remaining at 0.5 h, 1 μM",[2]; liver microsomes,41.1%
same,"remaining at 0.5 h, 10 μM",[2]; liver microsomes,69.7%
same,"remaining at 1 h, 1 μM",[2]; liver microsomes,25.9%
same,"remaining at 1 h, 10 μM",[2]; liver microsomes,60.1%
same,"remaining at 1.5 h, 1 μM",[2]; liver microsomes,22.3%
same,"remaining at 1.5 h, 10 μM",[2]; liver microsomes,55.5%
same,"remaining at 2 h, 1 μM",[2]; liver microsomes,16.4%
same,"remaining at 2 h, 10 μM",[2]; liver microsomes,48.9%
same,"remaining at 2 h, 1 μM",CYP2D6,40.6%
same,"remaining at 2 h, 1 μM",CYP3A4,25.6%
